Patent US12583851B2, “Heteroaryl-substituted pyrazine derivatives as pesticides” (Elanco Animal Health GmbH, priority 2019, dated 2026)

Tests used:
Assay type in all cases: in vivo
[1] = system: green peach aphid (Myzus persicae); experiment: Myzus persicae spray test; conditions: foliar, 120 h, Chinese cabbage leaf disks, after 5 days
Protocol: Myzus persicae—Spray Test
Solvent: 78.0 parts by weight acetone • 1.5 parts by weight dimethylformamide
(§1) Emulsifier: alkylarylpolyglycol ether
(§2) To produce a suitable preparation of active compound, 1 part by weight of active compound is mixed with the stated amount of solvents and is diluted with water, containing an emulsifier concentration of 1000 ppm, to the desired concentration. Further test concentrations are prepared by dilution with emulsifier containing water.
Chinese cabbage (Brassica pekinensis) leaf disks infected with all instars of the green peach aphid (Myzus persicae), are sprayed with a preparation of the active ingredient of the desired concentration.
After 5 days mortality in % is determined. 100% means all aphids have been killed and 0% means none of the aphids have been killed.

[2] = system: fall armyworm larvae (Spodoptera frugiperda); experiment: Spodoptera frugiperda spray test; conditions: 168 h, maize leaf sections, after 7 days
Procedure, shortened: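 Percent larval kill read at day 7, from 0% (no caterpillars dead) to 100% (all dead). Larvae were placed on dried Zea mays leaf discs previously sprayed with test preparations made from an acetone/DMF solution diluted in 1000 ppm emulsifier-containing water.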

[3] = system: Rhipicephalus (Boophilus) microplus larvae (strain Parkhurst, resistant against synthetic pyrethroids); experiment: Rhipicephalus (Boophilus) microplus in-vitro contact test, larval cattle tick; conditions: after 48 hours, read-out: efficacy (larvae dead or moribund); for pest or weed control at 1 µg/cm2, 100 g/ha: 1 μg/cm^2 (=100 g/ha); for pest or weed control at 5 µg/cm2, 500 g/ha: 5 μg/cm^2 (=500 g/ha)
Procedure, shortened: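 Pyrethroid-resistant larvae (strain Parkhurst), 20–50 per tube, exposed by contact to a dried acetone film of compound (5 μg/cm² at 900 ppm) for 48 h at 27 °C and 85% humidity. Percent dead or moribund larvae scored from negative geotactic behaviour.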

[4] = system: adult cat fleas (Ctenocephalides felis); experiment: Ctenocephalides felis in-vitro contact test, adult cat flea; conditions: after 48 hours, read-out: efficacy (fleas dead or moribund); for pest or weed control at 1 µg/cm2, 100 g/ha: 1 μg/cm^2 (=100 g/ha); for pest or weed control at 5 µg/cm2, 500 g/ha: 5 μg/cm^2 (=500 g/ha)
Procedure, shortened: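 Acetone solution coated onto glass tube walls; 900 ppm gives 5 μg/cm². Once dry, 5–10 adult fleas per tube held at room temperature for 48 h. Efficacy (%) is the share of fleas dead or moribund, i.e. unable to climb away on a 45–50° C heating plate.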

[5] = system: adult brown dog ticks (Rhipicephalus sanguineus); experiment: Rhipicephalus sanguineus in-vitro contact test, adult brown dog ticks; conditions: 48 h, after 48 hours, read-out: efficacy (ticks dead or moribund); for pest or weed control at 1 µg/cm2, 100 g/ha: 1 μg/cm^2 (=100 g/ha); for pest or weed control at 5 µg/cm2, 500 g/ha: 5 μg/cm^2 (=500 g/ha)
Procedure, shortened: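 Acetone solution coated on glass tube inner walls (900 ppm, giving 5 μg/cm^2); after drying, 5–10 adult ticks added and kept 48 h at room temperature. Efficacy scored as percent dead or moribund, i.e., ticks unable to climb away on a 45–50 °C heating plate within 5 min.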

[6] = system: larvae of the banded cucumber beetle (Diabrotica balteata); experiment: Diabrotica balteata spray test; conditions: 168 h, after 7 days, read-out: efficacy (seedling growth); for pest or weed control at 6.4 µg/disc, 20 g/ha: 20 g/ha (=6.4 μg/well); for pest or weed control at 32 µg/disc, 100 g/ha: 100 g/ha (=32 μg/well)
Procedure, shortened: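 Efficacy was read 7 days after infesting each unit with 10–20 banded cucumber beetle larvae, as % of seedlings growing like untreated, uninfested controls. Before infestation, wheat seeds germinated 1 day on agar (5 per well) were sprayed with the active ingredient. The active was formulated in acetone/DMF and diluted in water containing emulsifier.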

[7] = system: larvae of the southern green stink bug (Nezara viridula); experiment: Nezara viridula spray test; conditions: 96 h, 500 g/ha, barley plants, after 4 days
Protocol: Nezara viridula—Spray Test
(§3) Solvent: 78.0 parts by weight of acetone • • 1.5 parts by weight of dimethylformamide
as §1
as §2, with “solvent,” for “solvents”, “and the concentrate” for “and”
Barley plants (Hordeum vulgare) infested with larvae of the southern green stink bug (Nezara viridula) are sprayed with a test solution containing the desired concentration of the active ingredient.
After 4 days mortality in % is determined. 100% means all the stink bugs have been killed; 0% means none of the stink bugs have been killed.

[8] = system: brown planthopper (Nilaparvata lugens); experiment: Nilaparvata lugens spray test; conditions: 96 h, 500 g/ha, rice plants, after 4 days
Protocol: Nilaparvata lugens—Spray Test
as §3, §1, §2
Rice plants (Oryza sativa) are sprayed with a preparation of the active ingredient of the desired concentration and the plants are infested with the brown planthopper (Nilaparvata lugens).
After 4 days mortality in % is determined. 100% means all planthoppers have been killed and 0% means none of the planthoppers have been killed.

[9] = system: southern root-knot nematode (Meloidogyne incognita); experiment: Meloidogyne incognita test; conditions: 20 ppm, after 14 days
Protocol: Meloidogyne incognita—Test
Solvent: 125.0 parts by weight of acetone
To produce a suitable preparation of active compound, 1 part by weight of active compound is mixed with the stated amount of solvent, and the concentrate is diluted with water to the desired concentration.
Vessels are filled with sand, a solution of the active ingredient, a suspension containing eggs and larvae of the southern root-knot nematode (Meloidogyne incognita) and salad seeds. The salad seeds germinate and the seedlings grow. Galls develop in the roots.
After 14 days the nematicidal activity is determined based on the percentage of gall formation. 100% means no galls were found and 0% means the number of galls found on the roots of the treated plants was equal to that in untreated control plants.

CCN(CC)C(=O)c1ccc(-c2nccnc2C(C)NC(=O)c2cc(C(F)(F)F)cc(C(F)(F)F)c2)nc1 (single isomer, unassigned) [Example I-160, 6-(3-{1-[3,5-Bis(trifluoromethyl)benzamido]ethyl}pyrazin-2-yl)-N,N-diethylpyridine-3-carboxamide]
mortality at 100 g/ha [1]: 90%
mortality at 100 g/ha [2]: 100%

CC(NC(=O)c1cc(C(F)(F)F)cc(C(F)(F)F)c1)c1nccnc1-c1ccc(C(=O)N2C[C@@H](C)O[C@@H](C)C2)cn1 (single isomer, unassigned) [Example I-166, N-[1-(3-{5-[(cis)-2,6-Dimethylmorpholine-4-carbonyl]pyridin-2-yl}pyrazin-2-yl)ethyl]-3,5-bis(trifluoromethyl)benzamide]
mortality at 100 g/ha [1]: 90%
mortality at 100 g/ha [2]: 100%

CC(NC(=O)c1cc(Cl)cc(C(F)(F)F)c1)c1nccnc1-n1cc(C(=O)N(C)CC2CC2)cn1 (racemic) [Example I-132, (rac)-1-(3-{1-[3-Chloro-5-(trifluoromethyl)benzamido]ethyl}pyrazin-2-yl)-N-(cyclopropylmethyl)-N-methyl-1H-pyrazole-4-carboxamide]
pest or weed control at 1 µg/cm2, 100 g/ha [3]: 100%
pest or weed control at 5 µg/cm2, 500 g/ha [3]: 100%
pest or weed control at 1 µg/cm2, 100 g/ha [4]: 100%
pest or weed control at 5 µg/cm2, 500 g/ha [4]: 100%
pest or weed control at 1 µg/cm2, 100 g/ha [5]: 100%
pest or weed control at 5 µg/cm2, 500 g/ha [5]: 100%
pest or weed control at 6.4 µg/disc, 20 g/ha [6]: 100%
pest or weed control at 32 µg/disc, 100 g/ha [6]: 100%
mortality at 500 g/ha [7]: 100%
mortality at 500 g/ha [8]: 100%
mortality at 100 g/ha [2]: 100%

CC(NC(=O)c1cc(C(F)F)cc(C(F)F)c1)c1nccnc1-c1ncc(C(=O)N(C)CC2CC2)s1 (racemic) [Example I-141, (rac)-2-(3-{1-[3,5-Bis(difluoromethyl)benzamido]ethyl}pyrazin-2-yl)-N-(cyclopropylmethyl)-N-methyl-1,3-thiazole-5-carboxamide]
pest or weed control at 1 µg/cm2, 100 g/ha [3]: 100%
pest or weed control at 5 µg/cm2, 500 g/ha [3]: 90%
pest or weed control at 5 µg/cm2, 500 g/ha [4]: 100%
pest or weed control at 32 µg/disc, 100 g/ha [6]: 100%
mortality at 500 g/ha [7]: 100%
mortality at 500 g/ha [8]: 100%
mortality at 100 g/ha [2]: 100%

CC(NC(=O)c1cc(C(F)(F)F)cc(C(F)(F)F)c1)c1nccnc1-c1ccc(C(=O)N(C)CC2CC2)cn1 (single isomer, unassigned) [Example I-164, 6-(3-{1-[3,5-Bis(trifluoromethyl)benzamido]ethyl}pyrazin-2-yl)-N-(cyclopropylmethyl)-N-methylpyridine-3-carboxamide]
mortality at 100 g/ha [1]: 90%
mortality at 100 g/ha [2]: 100%

CC(NC(=O)c1cc(OC(F)(F)F)cc(S(C)(=O)=O)c1)c1nccnc1-c1ncc(C(=O)N(C)CC2CC2)s1 (racemic) [Example I-140, (rac)-N-(Cyclopropylmethyl)-2-(3-{1-[3-(methanesulfonyl)-5-(trifluoromethoxy)benzamido]ethyl}pyrazin-2-yl)-N-methyl-1,3-thiazole-5-carboxamide]
pest or weed control at 5 µg/cm2, 500 g/ha [4]: 90%
mortality at 500 g/ha [8]: 100%
mortality at 100 g/ha [2]: 100%

CC(NC(=O)c1cc(C(F)(F)F)cc(C(F)(F)F)c1)c1nccnc1-c1ncc(C#N)s1 (racemic) [Example I-82, (rac)-N-{1-[3-(5-Cyano-1,3-thiazol-2-yl)pyrazin-2-yl]ethyl}-3,5-bis(trifluoromethyl)benzamide]
pest or weed control at 1 µg/cm2, 100 g/ha [3]: 100%
pest or weed control at 5 µg/cm2, 500 g/ha [3]: 100%
pest or weed control at 1 µg/cm2, 100 g/ha [4]: 100%
pest or weed control at 5 µg/cm2, 500 g/ha [4]: 100%
nematicidal activity (based on gall formation) [9]: 100%
pest or weed control at 32 µg/disc, 100 g/ha [6]: 100%

CC(NC(=O)c1cc(Br)cc(OC(F)(F)F)c1)c1nccnc1-n1cc(C(=O)N(C)CC2CC2)cn1 (racemic) [Example I-134, (rac)-1-(3-{1-[3-Bromo-5-(trifluoromethoxy)benzamido]ethyl}pyrazin-2-yl)-N-(cyclopropylmethyl)-N-methyl-1H-pyrazole-4-carboxamide]
pest or weed control at 1 µg/cm2, 100 g/ha [3]: 100%
pest or weed control at 5 µg/cm2, 500 g/ha [3]: 100%
pest or weed control at 1 µg/cm2, 100 g/ha [4]: 80%
pest or weed control at 5 µg/cm2, 500 g/ha [4]: 100%
pest or weed control at 1 µg/cm2, 100 g/ha [5]: 100%
pest or weed control at 5 µg/cm2, 500 g/ha [5]: 100%
pest or weed control at 6.4 µg/disc, 20 g/ha [6]: 100%
pest or weed control at 32 µg/disc, 100 g/ha [6]: 100%
mortality at 500 g/ha [7]: 100%
mortality at 500 g/ha [8]: 100%
mortality at 100 g/ha [2]: 100%

CC(NC(=O)c1cc(Cl)cc(OC(F)(F)F)c1)c1nccnc1-c1nccs1 (racemic) [Example I-52, (rac)-3-Chloro-N-{1-[3-(1,3-thiazol-2-yl)pyrazin-2-yl]ethyl}-5-(trifluoromethoxy)benzamide]
nematicidal activity (based on gall formation) [9]: 90%
pest or weed control at 6.4 µg/disc, 20 g/ha [6]: 100%
pest or weed control at 32 µg/disc, 100 g/ha [6]: 100%

CC(NC(=O)c1cc(C(F)(F)F)cc(C(F)(F)F)c1)c1nccnc1-c1ccc(C(=O)N(C)C)cn1 (racemic) [Example I-38, (rac)-6-(3-{1-[3,5-Bis(trifluoromethyl)benzamido]ethyl}pyrazin-2-yl)-N,N-dimethylpyridine-3-carboxamide]
pest or weed control at 1 µg/cm2, 100 g/ha [3]: 100%
pest or weed control at 5 µg/cm2, 500 g/ha [3]: 100%
pest or weed control at 1 µg/cm2, 100 g/ha [4]: 90%
mortality at 100 g/ha [1]: 90%
mortality at 100 g/ha [2]: 100%

CC(NC(=O)c1cc(C(F)(F)F)cc(C(F)(F)F)c1)c1nccnc1-n1cc(C(=O)N(C)C)cn1 (racemic) [Example I-88, (rac)-1-(3-{1-[3,5-Bis(trifluoromethyl)benzamido]ethyl}pyrazin-2-yl)-N,N-dimethyl-1H-pyrazole-4-carboxamide]
pest or weed control at 1 µg/cm2, 100 g/ha [3]: 100%
pest or weed control at 5 µg/cm2, 500 g/ha [3]: 100%
pest or weed control at 6.4 µg/disc, 20 g/ha [6]: 100%
pest or weed control at 32 µg/disc, 100 g/ha [6]: 100%
mortality at 100 g/ha [1]: 90%
mortality at 100 g/ha [2]: 100%

CCN(C)C(=O)c1cnc(-c2nccnc2C(C)N(CC2CC2)C(=O)c2cc(C(F)(F)F)cc(C(F)(F)F)c2)s1 (racemic) [Example I-83, (rac)-2-{3-[1-{[3,5-Bis(trifluoromethyl)benzoyl](cyclopropylmethyl)amino}ethyl]pyrazin-2-yl}-N-ethyl-N-methyl-1,3-thiazole-5-carboxamide]
pest or weed control at 1 µg/cm2, 100 g/ha [3]: 100%
pest or weed control at 5 µg/cm2, 500 g/ha [3]: 100%
pest or weed control at 1 µg/cm2, 100 g/ha [4]: 100%
pest or weed control at 5 µg/cm2, 500 g/ha [4]: 100%
pest or weed control at 5 µg/cm2, 500 g/ha [5]: 80%
pest or weed control at 6.4 µg/disc, 20 g/ha [6]: 100%
pest or weed control at 32 µg/disc, 100 g/ha [6]: 100%
mortality at 500 g/ha [7]: 100%
mortality at 500 g/ha [8]: 100%
mortality at 100 g/ha [2]: 100%
